# Active and inactive are the calls of the source. The rule behind the calls is not given here.
# Tests used:
# [1] = target: T1, Metabotropic glutamate receptor 5 (Homo sapiens, UniProt P41594); experiment: Positive allosteric modification of human recombinant mGlu5 receptor expressed in U2OS cells assessed as potentiation of glutamate-induced Ca2+ flux in presence of EC20 glutamate; assay type: functional, cell-based
# Target sequence in this assay (P41594 whole entry): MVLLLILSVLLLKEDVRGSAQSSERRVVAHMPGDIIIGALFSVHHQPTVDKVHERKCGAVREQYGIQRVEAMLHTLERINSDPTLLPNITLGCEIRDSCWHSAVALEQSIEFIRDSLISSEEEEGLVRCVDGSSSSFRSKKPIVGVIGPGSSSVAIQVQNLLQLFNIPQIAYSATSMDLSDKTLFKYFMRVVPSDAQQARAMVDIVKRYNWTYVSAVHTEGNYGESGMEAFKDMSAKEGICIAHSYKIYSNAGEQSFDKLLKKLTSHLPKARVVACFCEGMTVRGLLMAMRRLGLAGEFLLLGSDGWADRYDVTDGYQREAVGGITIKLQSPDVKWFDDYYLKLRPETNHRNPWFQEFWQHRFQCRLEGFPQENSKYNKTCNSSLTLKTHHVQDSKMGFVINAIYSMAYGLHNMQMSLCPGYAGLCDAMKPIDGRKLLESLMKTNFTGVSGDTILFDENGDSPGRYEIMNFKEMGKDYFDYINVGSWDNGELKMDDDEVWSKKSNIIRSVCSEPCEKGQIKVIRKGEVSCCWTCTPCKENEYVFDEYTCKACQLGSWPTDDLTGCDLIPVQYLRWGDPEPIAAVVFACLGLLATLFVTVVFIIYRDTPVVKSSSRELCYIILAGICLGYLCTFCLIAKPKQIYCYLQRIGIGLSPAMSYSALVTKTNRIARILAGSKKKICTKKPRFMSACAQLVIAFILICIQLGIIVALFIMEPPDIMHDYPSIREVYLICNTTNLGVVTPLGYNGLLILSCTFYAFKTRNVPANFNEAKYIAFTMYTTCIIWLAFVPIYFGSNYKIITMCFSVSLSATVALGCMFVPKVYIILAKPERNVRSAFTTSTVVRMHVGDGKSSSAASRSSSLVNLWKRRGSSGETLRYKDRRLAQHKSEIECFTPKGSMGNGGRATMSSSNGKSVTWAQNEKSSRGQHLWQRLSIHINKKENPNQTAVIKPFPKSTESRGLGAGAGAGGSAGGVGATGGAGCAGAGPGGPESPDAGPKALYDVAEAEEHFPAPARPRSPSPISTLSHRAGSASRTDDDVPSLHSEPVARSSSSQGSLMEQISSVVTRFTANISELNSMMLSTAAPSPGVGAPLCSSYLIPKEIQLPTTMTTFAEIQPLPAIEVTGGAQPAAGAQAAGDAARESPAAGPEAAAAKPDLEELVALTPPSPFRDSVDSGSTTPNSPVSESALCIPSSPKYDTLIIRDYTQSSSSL
# [2] = target: T1, Metabotropic glutamate receptor 5; experiment: Positive allosteric modification of human recombinant mGlu5 receptor expressed in U2OS cells assessed as Ca2+ flux upto 25 uM relative to glutamate; assay type: functional, cell-based
# Target sequence in this assay (P41594 21-1212 limits assumed): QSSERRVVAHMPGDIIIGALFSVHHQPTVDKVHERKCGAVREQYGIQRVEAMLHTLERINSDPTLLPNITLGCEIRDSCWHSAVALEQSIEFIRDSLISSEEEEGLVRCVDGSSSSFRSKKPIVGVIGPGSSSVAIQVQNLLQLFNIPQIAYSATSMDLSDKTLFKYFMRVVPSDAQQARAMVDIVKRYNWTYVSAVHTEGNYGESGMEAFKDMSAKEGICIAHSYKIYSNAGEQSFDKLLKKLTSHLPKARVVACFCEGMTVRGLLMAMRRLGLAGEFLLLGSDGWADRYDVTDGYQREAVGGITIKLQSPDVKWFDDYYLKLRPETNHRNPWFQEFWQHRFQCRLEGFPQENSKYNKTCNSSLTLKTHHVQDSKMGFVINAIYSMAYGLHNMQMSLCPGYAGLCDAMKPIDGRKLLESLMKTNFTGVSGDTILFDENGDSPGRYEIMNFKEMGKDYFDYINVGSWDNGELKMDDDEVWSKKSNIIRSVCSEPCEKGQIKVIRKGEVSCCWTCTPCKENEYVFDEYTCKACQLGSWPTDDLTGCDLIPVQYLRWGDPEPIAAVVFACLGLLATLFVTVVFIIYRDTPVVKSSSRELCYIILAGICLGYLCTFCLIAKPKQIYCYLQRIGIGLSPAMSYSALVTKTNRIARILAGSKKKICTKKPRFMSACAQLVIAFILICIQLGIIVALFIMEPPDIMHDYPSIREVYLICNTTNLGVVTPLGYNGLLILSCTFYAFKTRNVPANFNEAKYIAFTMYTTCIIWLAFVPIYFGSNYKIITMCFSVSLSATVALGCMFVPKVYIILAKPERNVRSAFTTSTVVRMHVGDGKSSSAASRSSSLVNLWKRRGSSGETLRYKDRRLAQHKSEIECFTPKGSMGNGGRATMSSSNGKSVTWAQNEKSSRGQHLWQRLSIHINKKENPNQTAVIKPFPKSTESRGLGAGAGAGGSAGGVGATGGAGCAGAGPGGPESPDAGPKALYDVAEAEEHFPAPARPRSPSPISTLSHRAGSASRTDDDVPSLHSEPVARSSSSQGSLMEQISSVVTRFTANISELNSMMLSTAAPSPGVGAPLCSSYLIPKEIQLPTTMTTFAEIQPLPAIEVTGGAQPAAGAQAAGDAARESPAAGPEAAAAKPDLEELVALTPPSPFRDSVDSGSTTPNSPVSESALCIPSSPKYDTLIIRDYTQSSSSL
# [3] = target: Metabotropic glutamate receptor 5 (Rattus norvegicus) (UniProt P31424); experiment: Positive allosteric modification of mGlu5 receptor in rat cortical astrocytes assessed as maximal leftward shift in the EC50 of glutamate induced response upto 25 uM; assay type: cell-based
# [4] = Intrinsic clearance in rat liver microsomes at 3 uM; assay type: ADME; conditions: read-out: CLH
# [5] = Intrinsic clearance in human liver microsomes at 3 uM; assay type: ADME; conditions: read-out: CLH
# MDCK [6] = experiment: Permeability from apical to basolateral side in MDCK cells at 1 uM; assay type: ADME, cell-based, Canis lupus familiaris; conditions: dog
# MDCK [7] = experiment: Efflux ratio of permeability from apical to basolateral side to basolateral to apical side in MDCK cells; assay type: ADME, cell-based, Canis lupus familiaris; conditions: dog
# [8] = Kinetic solubility of compound in phosphate buffer saline at pH 7.4; assay type: physicochemical; conditions: for solubility kinetic: phosphate buffered saline, read-out: Kinetic_solubility
# [9] = Fraction unbound in rat brain; assay type: ADME, tissue-based
# [10] = Clearance in Sprague-Dawley rat at 0.25 mg/kg, iv; assay type: ADME, organism-based; conditions: in vivo
# [11] = Volume of distribution at steady state in Sprague-Dawley rat at 0.25 mg/kg, iv; assay type: ADME, organism-based; conditions: in vivo, read-out: Vdss
# [12] = Tmax in Sprague-Dawley rat at 3 mg/kg, po; assay type: ADME, organism-based; conditions: in vivo
# [13] = Half life in Sprague-Dawley rat at 3 mg/kg, po; assay type: ADME, organism-based; conditions: in vivo
# [14] = Oral bioavailability in Sprague-Dawley rat at 3 mg/kg; assay type: ADME, organism-based; conditions: in vivo
# [15] = Cmax in Sprague-Dawley rat plasma at 3 mg/kg, po; assay type: ADME, organism-based; parameters: dose 3 mg/kg, route oral
# [16] = Brain to plasma ratio in Sprague-Dawley rat at 3 mg/kg, po; assay type: ADME, organism-based; conditions: brain and plasma, read-out: BPR
# Rattus norvegicus = experiment: Cognitive enhancing effect in po dosed rat measured after 4 hrs by novel object recognition test; assay type: functional; conditions: for minimal effective dose: Rattus norvegicus, po, 4 h, read-out: MED
# Homo sapiens [17] = species on record: Homo sapiens; experiment: Agonist activity at mGlu receptor (unknown origin)
# Homo sapiens [18] = species on record: Homo sapiens; experiment: Positive allosteric modification of mGlu receptor (unknown origin)
# Homo sapiens [19] = species on record: Homo sapiens; experiment: Negative allosteric modification of mGlu receptor (unknown origin)
# [20] = Inhibition of CYP450 (unknown origin); assay type: ADME; conditions: human
# [21] = Clearance in Sprague-Dawley rat at 0.5 mg/kg, iv; assay type: ADME, organism-based; conditions: in vivo
# [22] = Volume of distribution at steady state in Sprague-Dawley rat at 0.5 mg/kg, iv; assay type: ADME, organism-based; conditions: in vivo, read-out: Vdss
# [23] = target: Voltage-gated inwardly rectifying potassium channel KCNH2 (Homo sapiens, UniProt Q12809); experiment: Inhibition of human ERG
# Sequence of Voltage-gated inwardly rectifying potassium channel KCNH2 (Q12809 whole entry): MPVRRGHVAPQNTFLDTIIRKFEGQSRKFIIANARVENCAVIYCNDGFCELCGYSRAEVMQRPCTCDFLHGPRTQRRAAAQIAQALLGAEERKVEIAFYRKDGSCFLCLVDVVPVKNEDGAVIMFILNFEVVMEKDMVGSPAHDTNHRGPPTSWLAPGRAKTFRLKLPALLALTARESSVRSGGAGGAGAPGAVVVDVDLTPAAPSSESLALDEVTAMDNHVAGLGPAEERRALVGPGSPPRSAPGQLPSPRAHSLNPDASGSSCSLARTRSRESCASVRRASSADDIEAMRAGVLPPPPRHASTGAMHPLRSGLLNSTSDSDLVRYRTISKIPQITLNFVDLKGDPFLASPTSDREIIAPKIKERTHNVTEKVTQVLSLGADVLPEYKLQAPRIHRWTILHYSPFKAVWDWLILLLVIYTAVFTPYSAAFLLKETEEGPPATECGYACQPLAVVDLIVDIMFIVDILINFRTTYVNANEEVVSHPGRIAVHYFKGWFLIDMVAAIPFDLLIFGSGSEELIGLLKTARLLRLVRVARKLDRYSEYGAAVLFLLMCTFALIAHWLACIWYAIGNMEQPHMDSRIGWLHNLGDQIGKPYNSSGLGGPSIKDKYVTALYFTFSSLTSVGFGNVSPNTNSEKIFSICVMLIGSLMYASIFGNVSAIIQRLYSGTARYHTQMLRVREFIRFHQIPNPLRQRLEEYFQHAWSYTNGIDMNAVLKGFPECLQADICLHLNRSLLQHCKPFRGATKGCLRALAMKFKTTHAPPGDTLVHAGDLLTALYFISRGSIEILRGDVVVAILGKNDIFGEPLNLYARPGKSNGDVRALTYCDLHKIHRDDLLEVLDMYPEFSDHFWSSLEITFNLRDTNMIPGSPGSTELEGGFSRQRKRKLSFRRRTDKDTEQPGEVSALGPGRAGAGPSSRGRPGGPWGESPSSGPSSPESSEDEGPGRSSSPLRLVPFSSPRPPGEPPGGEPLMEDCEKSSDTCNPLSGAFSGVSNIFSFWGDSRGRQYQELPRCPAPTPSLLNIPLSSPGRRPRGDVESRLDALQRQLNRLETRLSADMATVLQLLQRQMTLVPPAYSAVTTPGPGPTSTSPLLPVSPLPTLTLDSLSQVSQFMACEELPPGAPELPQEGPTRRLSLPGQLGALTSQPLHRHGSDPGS
# Sequence of Metabotropic glutamate receptor 5 (Rattus norvegicus) (P31424 21-1203 limits assumed): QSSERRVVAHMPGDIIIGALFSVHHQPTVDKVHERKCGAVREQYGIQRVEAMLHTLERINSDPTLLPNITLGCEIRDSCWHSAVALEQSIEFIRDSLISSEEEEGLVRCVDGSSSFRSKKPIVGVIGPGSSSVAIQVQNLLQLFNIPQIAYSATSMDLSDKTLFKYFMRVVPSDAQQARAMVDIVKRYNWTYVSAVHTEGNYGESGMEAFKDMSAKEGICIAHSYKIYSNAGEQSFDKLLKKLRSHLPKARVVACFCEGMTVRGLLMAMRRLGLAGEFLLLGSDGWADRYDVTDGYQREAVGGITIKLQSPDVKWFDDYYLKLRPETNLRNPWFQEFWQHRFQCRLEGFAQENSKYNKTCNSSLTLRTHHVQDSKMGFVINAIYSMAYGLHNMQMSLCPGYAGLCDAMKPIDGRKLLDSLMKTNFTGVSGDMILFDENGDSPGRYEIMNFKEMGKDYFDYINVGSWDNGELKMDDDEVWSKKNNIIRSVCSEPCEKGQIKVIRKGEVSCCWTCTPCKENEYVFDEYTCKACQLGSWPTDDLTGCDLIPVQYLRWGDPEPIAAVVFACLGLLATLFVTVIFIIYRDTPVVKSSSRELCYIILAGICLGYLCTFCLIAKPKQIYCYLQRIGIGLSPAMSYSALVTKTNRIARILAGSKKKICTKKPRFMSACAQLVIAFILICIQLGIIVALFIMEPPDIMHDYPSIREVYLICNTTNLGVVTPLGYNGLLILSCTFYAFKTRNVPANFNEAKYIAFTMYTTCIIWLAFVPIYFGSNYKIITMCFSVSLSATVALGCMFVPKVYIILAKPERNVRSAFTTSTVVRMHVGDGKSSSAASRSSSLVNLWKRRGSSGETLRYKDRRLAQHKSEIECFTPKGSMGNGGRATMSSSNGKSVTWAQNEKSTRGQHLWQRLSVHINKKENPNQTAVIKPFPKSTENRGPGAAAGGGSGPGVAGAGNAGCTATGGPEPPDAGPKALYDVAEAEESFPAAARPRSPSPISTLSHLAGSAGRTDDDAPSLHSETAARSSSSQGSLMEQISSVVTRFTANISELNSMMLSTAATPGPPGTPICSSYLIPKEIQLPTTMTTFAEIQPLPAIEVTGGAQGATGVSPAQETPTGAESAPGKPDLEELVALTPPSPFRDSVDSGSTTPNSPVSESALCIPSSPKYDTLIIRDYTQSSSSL
structure (smiles),measurement,setting,value
CC(C)(C)n1nnc2c1CCC(c1nc(-c3ccc(C#N)cc3)no1)C2 (stereo not given),EC50,[1],79.4 nM
same,%max,[2],87%
same,fold change (FC),[3],6
CC(C)(C)n1nnc2c1CCC(c1nc(Cc3ccc(F)cc3)no1)C2 (stereo not given),EC50,[1],20 nM
same,%max,[2],77%
same,fold change (FC),[3],7
same,microsomal CLint at 3 µM,[4],120 µL/min/mg
Cc1ccc(-c2noc(C3CCc4c(nnn4C(C)(C)C)C3)n2)cn1 (racemic),EC50,[1],1580 nM
same,%max,[2],67%
CC(C)(C)n1nnc2c1CCC(c1nc(N3CCOCC3)no1)C2 (racemic),EC50,[1],1260 nM
same,%max,[2],29%
CC1(n2nnc3c2CCC(c2nc(-c4ccc(F)cc4)no2)C3)CCOCC1 (stereo not given),EC50,[1],10 nM
same,%max,[2],103%
same,fold change (FC),[3],7
CC(C)(C)n1nnc2c1CCC(c1nc(C3CCCCC3)no1)C2 (racemic),EC50,[1],200 nM
same,%max,[2],91%
Fc1ccc(-c2noc(C3CCc4c(nnn4C4CCCC4)C3)n2)cc1 (stereo in doubt; 10) [listing 1 of 2 here],%max,[2],78%
same,fold change (FC),[3],4
CC(C)(C)Cn1nnc2c1CCC(c1nc(-c3ccc(F)cc3)no1)C2 (stereo not given),EC50,[1],31.6 nM
same,%max,[2],108%
same,fold change (FC),[3],8
CC(C)(C#N)n1nnc2c1CCC(c1nc(-c3ccc(F)cc3)no1)C2 (stereo not given),EC50,[1],15.8 nM
same,%max,[2],71%
same,fold change (FC),[3],3
same,microsomal CLint at 3 µM,[5],9 µL/min/mg
same,microsomal CLint at 3 µM,[4],6 µL/min/mg
same,permeability,MDCK [6],43 ×10⁻⁶ cm/s
same,Ratio,MDCK [7],0.6
same,solubility kinetic,[8],5.6 µM
same,fraction unbound,[9],0.015
same,clearance,[10],4 mL/min/kg
same,Vd,[11],2.5 L/kg
same,Tmax,[12],6 h
same,half-life,[13],7 h
same,bioavailability,[14],45%
same,Cmax,[15],891 nM
same,Kp,[16],3.2
same,LED,Rattus norvegicus,0.03 mg/kg
same,Activity,Homo sapiens [17],inactive
same,Activity,Homo sapiens [18],inactive
same,Activity,Homo sapiens [19],inactive
same,inhibition (INH),[20],Not Active
CC(C)(C)n1nnc2c1CCC(c1nnc(-c3ccc(F)cc3)o1)C2 (racemic),EC50,[1],3160 nM
same,%max,[2],53%
CC(C)(C)n1nnc2c1CCC(c1nc(-c3ccc(F)cc3)no1)C2 (stereo not given),EC50,[1],5.01 nM
same,%max,[2],98%
same,fold change (FC),[3],4
same,microsomal CLint at 3 µM,[5],18 µL/min/mg
same,microsomal CLint at 3 µM,[4],20 µL/min/mg
same,permeability,MDCK [6],42 ×10⁻⁶ cm/s
same,Ratio,MDCK [7],0.8
same,solubility kinetic,[8],6 µM
same,fraction unbound,[9],0.013
same,clearance,[21],11 mL/min/kg
same,Vd,[22],4.3 L/kg
same,Tmax,[12],4 h
same,half-life,[13],6.5 h
same,bioavailability,[14],46%
same,Cmax,[15],438 nM
same,Kp,[16],2
same,minimal effective dose,Rattus norvegicus,0.3 mg/kg
same,Activity,Homo sapiens [17],inactive
same,Activity,Homo sapiens [18],inactive
same,Activity,Homo sapiens [19],inactive
same,inhibition (INH),[20],Not Active
CC(C)n1nnc2c1CCC(c1nc(-c3ccc(F)cc3)no1)C2 (racemic),EC50,[1],398 nM
same,%max,[2],98%
Fc1ccc(-c2noc(C3CCc4c(nnn4C4CCOC4)C3)n2)cc1 (stereo not given),EC50,[1],398 nM
same,%max,[2],96%
same,fold change (FC),[3],4
same,microsomal CLint at 3 µM,[4],22 µL/min/mg
Fc1ccc(-c2nc(-c3ccc4c(c3)nnn4C3CCCC3)no2)cc1,EC50,[1],398 nM
same,%max,[2],51%
CC(C)Cc1noc(C2CCc3c(nnn3C(C)(C)C)C2)n1 (racemic),EC50,[1],1000 nM
same,%max,[2],66%
Fc1ccc(-c2noc(C3CCc4c(nnn4C4CCCC4)C3)n2)cc1 (stereo in doubt; 10) [listing 2 of 2 here],EC50,[1],398 nM
CN(C)c1ccc(-c2noc(C3CCc4c(nnn4C(C)(C)C)C3)n2)cc1 (racemic),EC50,[1],1000 nM
same,%max,[2],68%
Fc1ccc(-c2noc(C3CCc4c(nnn4C4CCCC4)C3)n2)cc1 (stereo in doubt; 9) [listing 1 of 2 here],%max,[2],103%
same,fold change (FC),[3],10
Fc1ccc(-c2noc(C3CCc4c(nnn4-c4ccc(F)cc4)C3)n2)cc1 (stereo not given),EC50,[1],15.8 nM
same,%max,[2],106%
same,fold change (FC),[3],3
same,Kinetic_solubility,[8]; buffer,Insoluble
same,fraction unbound,[9],0.003
CN1CCC(n2nnc3c2CCC(c2nc(-c4ccc(F)cc4)no2)C3)CC1 (racemic),EC50,[1],3980 nM
same,%max,[2],91%
CC(C)(C)n1nnc2c1CCC(n1cnc(-c3ccc(F)cc3)n1)C2 (stereo not given),EC50,[1],50.1 nM
same,%max,[2],80%
same,fold change (FC),[3],3
same,microsomal CLint at 3 µM,[5],4 µL/min/mg
same,microsomal CLint at 3 µM,[4],20 µL/min/mg
same,permeability,MDCK [6],46 ×10⁻⁶ cm/s
same,Ratio,MDCK [7],0.8
same,solubility kinetic,[8],> 100 µM
same,fraction unbound,[9],0.056
same,clearance,[21],14 mL/min/kg
same,Vd,[22],1.9 L/kg
same,Tmax,[12],2.7 h
same,half-life,[13],2.9 h
same,bioavailability,[14],114%
same,Cmax,[15],1950 nM
same,Kp,[16],1.4
same,minimal effective dose,Rattus norvegicus,0.3 mg/kg
same,Activity,Homo sapiens [17],inactive
same,Activity,Homo sapiens [18],inactive
same,Activity,Homo sapiens [19],inactive
same,IC50,[23],6310 nM
same,inhibition (INH),[20],Not Active
CC(C)(C)n1nnc2c1CCC(c1noc(-c3ccc(F)cc3)n1)C2 (stereo not given),EC50,[1],5.01 nM
same,%max,[2],85%
same,fold change (FC),[3],5
Fc1ccc(-c2noc(C3CCc4c(nnn4C4CCCC4)C3)n2)cc1 (stereo in doubt; 9) [listing 2 of 2 here],EC50,[1],31.6 nM
same,microsomal CLint at 3 µM,[4],146 µL/min/mg
Fc1ccc(-c2noc(C3CCc4c(nnn4-c4ccc(F)nc4)C3)n2)cc1 (stereo not given),EC50,[1],> 25100 nM

# — ChEMBL document CHEMBL3734684, “Identification and optimisation of a series of tetrahydrobenzotriazoles as metabotropic glutamate receptor 5-selective positive allosteric modulators that improve performance in a preclinical model of cognition” (Bioorg Med Chem Lett, 2015)
